Article PMC11574108, “4-Furanylvinylquinoline derivative as a new scaffold for the design of oxidative stress initiator and glucose transporter inhibitor drugs” (Scientific Reports, 2024)
Like-named read-outs stand apart in the source and are kept apart here.

Tests used:
NHDF = assay: Monolayer MTS cytotoxicity against normal cells; assay type: cell-based; conditions: NHDF, normal human dermal fibroblasts, 72-h incubation
Excerpt: The human colon carcinoma cell line HCT 116 with wild-type p53 (p53^+/+) and the human glioblastoma cell line U-251 were obtained from ATCC, while the HCT 116 with a p53 deletion (p53^−/−) was kindly provided by Prof. M. Rusin from the Maria Sklodowska-Curie Memorial Cancer Center and Institute of Oncology in Gliwice, Poland. The human chronic myelogenous leukaemia cell line K562 and the normal human cell dermal fibroblast cell line NHDF were purchased from Sigma-Aldrich and PromoCell, respectively. Both the HCT 116 and U-251 cell lines were cultured in Dulbecco’s modified Eagle’s medium (DMEM) supplemented with 10% inactivated foetal bovine serum (FBS). The DMEM for the NHDF contained 15% non-inactivated FBS. K562 cells were cultured in RPMI medium completed by 10% inactivated FBS. Additionally, the media were supplemented with antibiotics (streptomycin and penicillin – 1% v/v; Sigma-Aldrich). The cell culture was conducted in 75 cm^2 flasks (Nunc) under standard conditions (37 °C, 5% CO2 humidified atmosphere). Furthermore, the cell lines were frequently tested for mycoplasma using the qRT-PCR technique with specific Mycoplasma primers to confirm the lack of contamination.
(§1) The cells were seeded in 96-well plates (Nunc) with 5,000 or 4,000 cells per well for the cancer cells and NHDF, respectively, and incubated under standard conditions at 37 °C overnight. The culture media were then changed for freshly prepared solutions of the tested compounds in various concentrations. After 72-h incubation the antiproliferative assay was carried out as follows: the solutions of the compounds were changed in each well to 100 µL DMEM without phenol red and 20 µL of CellTiter 96 AQueous One Solution-MTS (Promega). The plates were incubated for 1 h at 37 °C, and the absorbance was then measured at 490 nm using a multi-plate reader (Synergy 4, BioTek). The experiment for each sample was repeated at least three times.
Additionally, the compounds were also tested for their cytotoxicity against normal cells – human dermal fibroblasts (NHDF).

AsPC-1 = assay: Monolayer antiproliferative MTS assay; assay type: cell-based, human; conditions: 2D monolayer; for IC50: MTS, 72-h incubation
Method: as §1, with “times. The results are presented as the half-maximal inhibitory concentration (IC50) values, which were estimated in comparison to untreated cells (control) and calculated using GraphPad Prism v.8.0 (USA).” for “times.”
(§2) However, the antiproliferative activity of derivative 13 with furan a ring was surprising. […] For this purpose, we selected two pancreatic cancer cell lines: AsPC-1, which is characterised by a deletion of the p53 protein[20] and PANC-1, which carries an R273H mutation. This mutation also occurred in the glioblastoma U-251 cell line[22],[23]. An additional non-adherent line that carries the TP53 mutation that results in the absence of p53 is the K562 leukemic cell line[24]. […] Moreover, 13 was selective toward […], as indicated by its SI values (3.35–9.41). Among all of the tested cell lines, the highest activity of the compound was found against the HCT 116 cells with the wild-type p53 protein (0.069 µM). […] The p53 protein also interacts with the metabolic pathways that are associated with glucose transport[25] as well as small molecules. In light of the above-mentioned facts, we also determined the cytotoxicity of the GLUT inhibitor BAY-876, which is based on a quinoline scaffold. […] Furthermore, BAY-876 was also toxic to normal cells.

PANC-1 = assay: Monolayer antiproliferative MTS assay; assay type: cell-based, human; conditions: 2D monolayer; for IC50: MTS, 72-h incubation
Method: as §1, with “times. The results are presented as the half-maximal inhibitory concentration (IC50) values, which were estimated in comparison to untreated cells (control) and calculated using GraphPad Prism v.8.0 (USA).” for “times.”
as §2

HCT 116 p53+/+ spheroids = assay: 3D spheroid cell viability assay; assay type: cell-based, human; conditions: 3D spheroids, CellTiter-Glo 3D, 72-h treatment, read-out: IC50 HCT 116 p53+/+ (3D model)
Method: (§3) The HCT 116 cell lines, AsPC-1, PANC-1 (5,000), and U-251 cells (8,000) in 100 µL of medium were seeded in 96-well ULA Corning spheroid microplates (Sigma-Aldrich) and incubated for 72 h at 37 °C to form spheroids. The medium from each well was then gently removed and freshly prepared solutions of 13 were added. The treated spheroids were incubated for the next 72-h. Afterward, cell viability assays were performed using CellTiter-Glo 3D Reagent (Promega) according to the manufacturer’s protocol. Briefly, CellTiter-Glo 3D Reagent was added in equal volume to the medium in each well. The plate was vigorously mixed for 5 min and then incubated for 25 min at room temperature. The luminescence was measured using a multiplate reader (Synergy 4, BioTek). The experiment for each sample was performed at least three times. The results from the assay are presented as IC50 values, which were calculated using GraphPad Prism v.8.0 (USA).
To confirm the cytotoxicity ranking, the viability of the cells was also estimated on a 3D spheroid model, which better represented a solid tumour. […] The cell lines that represented pancreatic cancer were less responsive to derivative 13, which was similar to the 2D model. […]

AsPC-1 spheroids = assay: 3D spheroid cell viability assay; assay type: cell-based; conditions: Homo sapiens, ASPC1; 3D spheroids, CellTiter-Glo 3D, 72-h treatment; read-out: IC50 AsPC-1 (3D model)
Method: as §3
(§4) To confirm the cytotoxicity ranking, the viability of the cells was also estimated on a 3D spheroid model, which better represented a solid tumour. […] The cell lines that represented pancreatic cancer were less responsive to derivative 13, which was similar to the 2D model. […] However, the activity of derivative 13 was confirmed on the 3D model that reflected a real tumour, which is undoubtedly a positive result and a reason for further, more in-depth studies to clarify the mechanism of action of the 4-furanylvinylquinoline derivative 13.

HCT 116 p53-/- spheroids = assay: 3D spheroid cell viability assay; assay type: cell-based; conditions: Homo sapiens, HCT-116, 72 h, 3D spheroids, CellTiter-Glo 3D, 72-h treatment; read-out: IC50 HCT 116 p53-/- (3D model)
Method: as §3, §4

PANC-1 spheroids = assay: 3D spheroid cell viability assay; assay type: cell-based; conditions: Homo sapiens, 3D spheroids, CellTiter-Glo 3D, 72-h treatment, read-out: IC50 PANC-1 (3D model)
Method: as §3, §4

U-251 spheroids = assay: 3D spheroid cell viability assay; assay type: cell-based; conditions: Homo sapiens, 3D spheroids, CellTiter-Glo 3D, 72-h treatment, read-out: IC50 U-251 (3D model)
Method: as §3, §4

tested cancer lines = assay: Antiproliferative MTS assay, summary over the panel; assay type: cell-based; conditions: Homo sapiens; against most of the tested cancer lines
Method: as §1, with “times. The results are presented as the half-maximal inhibitory concentration (IC50) values, which were estimated in comparison to untreated cells (control) and calculated using GraphPad Prism v.8.0 (USA).” for “times.”
However, the antiproliferative activity of derivative 13 with furan a ring was surprising. […] For this purpose, we selected two pancreatic cancer cell lines: AsPC-1, which is characterised by a deletion of the p53 protein[20] and PANC-1, which carries an R273H mutation. […] In light of the above-mentioned facts, we also determined the cytotoxicity of the GLUT inhibitor BAY-876, which is based on a quinoline scaffold. […]

- IC50 (AsPC-1): 0.123 ± 0.007 µM
- IC50 (AsPC-1; Homo sapiens, ASPC1, 72 h): ≤ 0.2 µM
- IC50 (PANC-1): 0.193 ± 0.008 µM
- IC50 (PANC-1; Homo sapiens, PANC-1, 72 h): ≤ 0.2 µM
- IC50 (HCT 116 p53+/+ spheroids): 1.16 ± 0.19 µM
- IC50 (HCT 116 p53+/+ spheroids; Homo sapiens, HCT-116, 72 h): ~1 µM
- IC50 (AsPC-1 spheroids): 4.18 ± 1 µM
- IC50 (HCT 116 p53-/- spheroids): ~1 µM
- IC50 (PANC-1 spheroids): 2.16 ± 0.37 µM
- IC50 (U-251 spheroids): 0.34 ± 0.07 µM
- IC50 (tested cancer lines): < 0.1 µM
Compound: O=[N+]([O-])c1ccc(/C=C/c2ccnc3ccccc23)o1 [Compound 13]
- IC50 (NHDF): 0.649 ± 0.06 µM
- SI (selectivity index) AsPC-1 (AsPC-1; relative to NHDF): 5.28
- SI (selectivity index) PANC-1 (PANC-1; relative to NHDF): 3.36
